The structures appear in SMILES notation.

Among the data in patent US9416129B2, “Tricyclic substituted thiadiazine dioxide compounds as BACE inhibitors, compositions and their use” (Merck Sharp & Dohme Corp., priority 2012, dated 2016) are Ki values, retold here.

Test [1] concerns the target human autoBACE-2 (Homo sapiens (Human), UniProt Q9Y5Z0). The test is described as follows: BACE-2 assay (BACE-HTRF, time-resolved endpoint proteolysis). It counts as biochemical. The following applies: Ki calculated from IC50 using the Cheng-Prusoff equation; read-out: BACE2 Ki. The method, then: Inhibitor IC50s at purified human autoBACE-2 are determined in a time-resolved endpoint proteolysis assay that measures hydrolysis of the QSY7-[…]-Eu-amide FRET peptide substrate (BACE-HTRF assay). […] DMSO is present at 5% final concentration in the assay. Following laser excitation of sample wells at 320 nm, the fluorescence signal at 620 nm is collected for 400 ms following a 50 μs delay on a RUBYstar HTRF plate reader (BMG Labtechnologies). Raw RFU data is normalized to maximum (1.0 nM BACE/DMSO) and minimum (no enzyme/DMSO) RFU values. […] The Ki values are calculated from the IC50 using the Cheng-Prusoff equation.

Test [2] deals with soluble human BACE1 catalytic domain (Homo sapiens (Human), UniProt P56817). The test is described as follows: BACE1 HTRF FRET assay. To be noted: Ki calculated from IC50 using the Cheng-Prusoff equation. The format is biochemical. The text has this: Na^+-Acetate pH 5.0; 1% Brij-35; Glycerol; Dimethyl Sulfoxide (DMSO); Recombinant human soluble BACE1 catalytic domain (>95% pure); APP Swedish mutant peptide substrate (QSY7-APP^swe-Eu): QSY7-[…]-Europium-amide.
soluble human BACE1 catalytic domain, sequence (P56817 75-416): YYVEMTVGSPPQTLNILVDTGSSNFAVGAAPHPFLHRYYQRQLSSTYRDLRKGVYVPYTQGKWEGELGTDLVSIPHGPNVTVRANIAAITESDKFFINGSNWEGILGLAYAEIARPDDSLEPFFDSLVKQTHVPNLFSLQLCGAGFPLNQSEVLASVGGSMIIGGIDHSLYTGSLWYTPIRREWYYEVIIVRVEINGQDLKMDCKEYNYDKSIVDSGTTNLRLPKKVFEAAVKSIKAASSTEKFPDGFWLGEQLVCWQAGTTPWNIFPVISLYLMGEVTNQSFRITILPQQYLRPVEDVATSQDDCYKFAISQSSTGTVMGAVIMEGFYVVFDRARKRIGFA
A homogeneous time-resolved FRET assay can be used to determine IC50 values for inhibitors of the soluble human BACE1 catalytic domain. This assay monitors the increase of 620 nm fluorescence that resulted from BACE1 cleavage of an APPswedish APP^swe mutant peptide FRET substrate (QSY7-[…]-Europium-amide). This substrate contains an N-terminal QSY7 moiety that serves as a quencher of the C-terminal Europium fluorophore (620 nm Em). In the absence of enzyme activity, 620 nm fluorescence is low in the assay and increased linearly over 3 hours in the presence of uninhibited BACE1 enzyme Inhibition of BACE1 cleavage of the QSY7-APP^swe-Eu substrate by inhibitors is manifested as a suppression of 620 nm fluorescence.
Varying concentrations of inhibitors at 3× the final desired concentration in a volume of 10 ul are preincubated with purified human BACE1 catalytic domain (3 nM in 10 μl) for 30 minutes at 30° C. in reaction buffer containing 20 mM Na-Acetate pH 5.0, 10% glycerol, 0.1% Brij-35 and 7.5% DSMO. Reactions are initiated by addition of 10 μl of 600 nM QSY7-APP^swe-Eu substrate (200 nM final) to give a final reaction volume of […] in a 384 well Nunc HTRF plate. The reactions are incubated at 30° C. for 1.5 hours. The 620 nm fluorescence is then read on a Rubystar HTRF plate reader (BMG Labtechnologies) using a 50 millisecond delay followed by a 400 millisecond acquisition time window. Inhibitor IC50 values are derived from non-linear regression analysis of concentration response curves.

human autoBACE-2, sequence (Q9Y5Z0 63-473 limits assumed): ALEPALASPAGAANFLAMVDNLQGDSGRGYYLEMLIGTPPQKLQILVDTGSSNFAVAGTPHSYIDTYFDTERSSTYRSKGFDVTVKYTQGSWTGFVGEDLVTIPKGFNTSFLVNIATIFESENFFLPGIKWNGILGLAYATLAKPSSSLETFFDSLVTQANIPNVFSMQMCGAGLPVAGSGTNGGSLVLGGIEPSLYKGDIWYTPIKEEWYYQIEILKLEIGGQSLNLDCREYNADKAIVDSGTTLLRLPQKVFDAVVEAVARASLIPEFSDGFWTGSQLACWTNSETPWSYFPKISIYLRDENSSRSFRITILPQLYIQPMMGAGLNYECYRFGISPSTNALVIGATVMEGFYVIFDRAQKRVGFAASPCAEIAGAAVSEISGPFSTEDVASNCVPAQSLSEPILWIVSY

A word on the Ki: it is a dissociation constant, usually derived from enzyme kinetics or from competition with a known ligand. Consider `CN1C(=N)N[C@](C)(c2sc(-c3cccc(-c4nnco4)c3)cc2Cl)CS1(=O)=O` [Example 1], for which the Ki in test [1] is 6 nM; in test [2], 1.6 nM.

Regarding `CN1C(=N)N[C@](C)(c2sc(-c3cccc(-c4nnco4)c3)cc2F)CS1(=O)=O` [Example 2], the Ki in test [1] is 13.8 nM; in test [2], 1.7 nM.

For the compound `CN1C(=N)N[C@](C)(c2sc(-c3cncc(-c4nnco4)c3)cc2F)CS1(=O)=O` [Example 3], the Ki in test [1] was 25.9 nM; in test [2], 7.5 nM.

As to `CN1C(=N)N[C@](C)(c2sc(-c3cccc(-c4cc[nH]n4)c3)cc2F)CS1(=O)=O` [Example 4], the Ki is 0.35 nM in test [1] and 10.7 nM in test [2].

Take `CN1C(=N)N[C@](C)(c2sc(-c3cncc(-c4ncco4)c3)cc2Cl)CS1(=O)=O` [Example 9]: the Ki in test [1] was 0.31 nM; in test [2], 6.9 nM.

With `CN1C(=N)N[C@](C)(c2sc(-c3cncc(-c4ncco4)c3)cc2F)CS1(=O)=O` [Example 10], the values for the Ki in test [1] and in test [2] were 1 nM and 15.7 nM, respectively.

For `CN1C(=N)N[C@](C)(c2sc(-c3cccc(-c4ccno4)c3)cc2Cl)CS1(=O)=O` [Example 13], the Ki in test [1] is 2.4 nM; in test [2], 6.5 nM.

As for `Cc1nnc(-c2cccc(-c3cc(Cl)c([C@]4(C)CS(=O)(=O)N(C)C(=N)N4)s3)c2)o1` [Example 15], the Ki in test [1] was 3.8 nM.

Consider `Cc1nnc(-c2cccc(-c3cc(F)c([C@]4(C)CS(=O)(=O)N(C)C(=N)N4)s3)c2)o1` [Example 16], for which the Ki was 4.2 nM in test [1] and 232 nM in test [2].

On to `CN1C(=N)N[C@](C)(c2cc(-c3cccc(-c4nnco4)c3)cs2)CS1(=O)=O` [Example 19], for which the Ki in test [1] was 52 nM; in test [2], 19.2 nM.

On to `CN1C(=N)N[C@](C)(c2sc(-c3cncc(-c4cnco4)c3)cc2Cl)CS1(=O)=O` [Example 20], for which the Ki in test [1] is 8.9 nM; in test [2], 11.9 nM.

In the case of `CN1C(=N)N[C@](C)(c2sc(-c3cncc(-c4cnco4)c3)cc2F)CS1(=O)=O` [Example 21], the Ki in test [1] was 16 nM; in test [2], 18.4 nM.

As for `CN1C(=N)N[C@](C)(c2cc(-c3cncc(-c4cnco4)c3)cs2)CS1(=O)=O` [Example 22], the values for the Ki in test [1] and in test [2] were 98 nM and 85.9 nM, respectively.

Turning to `CN1C(=N)N[C@](C)(c2cc(-c3cc(F)cc(-c4cnco4)c3)cs2)CS1(=O)=O` [Example 24], the Ki is 18 nM in test [1] and 81 nM in test [2].

Consider `CN1C(=N)N[C@](C)(c2ncc(-c3cccc(-c4ncco4)c3)s2)CS1(=O)=O` [Example 26], for which the Ki is 5.7 nM in test [1] and 43.6 nM in test [2].

Take `CN1C(=N)N[C@](C)(c2ncc(-c3cccc(-c4nnco4)c3)s2)CS1(=O)=O` [Example 27]: the figures for the Ki in test [1] and in test [2] were 152 nM and 13.8 nM, respectively.

`CN1C(=N)N[C@](C)(c2sc(-c3cc(F)cc(-c4nnco4)c3)cc2Cl)CS1(=O)=O` [Example 28]: the inhibition constant (Ki) in test [1] is 0.28 nM; in test [2], 0.5 nM.

`CN1C(=N)N[C@](C)(c2sc(-c3cc(F)cc(-c4nnco4)c3)cc2F)CS1(=O)=O` [Example 29]: the Ki is 1.3 nM in test [1] and 1.2 nM in test [2].

`CN1C(=N)N[C@](C)(c2cc(-c3cc(F)cc(-c4nnco4)c3)ccc2F)CS1(=O)=O` [Example 30]: the Ki in test [1] is 235 nM; in test [2], 869 nM.

`CN1C(=N)N[C@](C)(c2sc(-c3cc(-c4nnco4)ccc3F)cc2Cl)CS1(=O)=O` [Example 31]: the Ki in test [1] is 4.2 nM; in test [2], 1.7 nM.

Consider `CN1C(=N)N[C@](C)(c2sc(-c3cc(-c4nnco4)ccc3F)cc2F)CS1(=O)=O` [Example 32], for which the inhibition constant (Ki) is 3.9 nM in test [1] and 1.1 nM in test [2].

With `CN1C(=N)N[C@](C)(c2sc(-c3ccc(F)c(-c4nnco4)c3)cc2Cl)CS1(=O)=O` [Example 33], the inhibition constant (Ki) is 10 nM in test [1] and 5.5 nM in test [2].

Turning to `CN1C(=N)N[C@](C)(c2sc(-c3ccc(F)c(-c4nnco4)c3)cc2F)CS1(=O)=O` [Example 34], the Ki is 11 nM in test [1] and 6.7 nM in test [2].

Turning to `CN1C(=N)N[C@](C)(c2sc(-c3cccc(-c4nnco4)c3F)cc2Cl)CS1(=O)=O` [Example 35], the Ki in test [1] was 30 nM; in test [2], 60.7 nM.

Take `CN1C(=N)N[C@](C)(c2sc(-c3cccc(-c4nnco4)c3F)cc2F)CS1(=O)=O` [Example 36]: the Ki in test [1] is 247 nM; in test [2] it was 1150 nM.

With `Cc1noc(-c2cccc(-c3cc(Cl)c([C@]4(C)CS(=O)(=O)N(C)C(=N)N4)s3)c2)n1` [Example 37], the values for the Ki in test [1] and in test [2] were 4.6 nM and 25.9 nM, respectively.

For `CN1C(=N)N[C@](C)(c2sc(-c3cccc(-c4nc(C5CC5)no4)c3)cc2Cl)CS1(=O)=O` [Example 39], the Ki was 9.9 nM in test [1] and 419 nM in test [2].

Consider `CN1C(=N)N[C@](C)(c2sc(-c3cccc(-c4nc(C5CC5)no4)c3)cc2F)CS1(=O)=O` [Example 40], for which the figures for the Ki in test [1] and in test [2] were 9.5 nM and 623 nM, respectively.

Take `CN1C(=N)N[C@](C)(c2cc(-c3cc(F)cc(-c4nnco4)c3)cs2)CS1(=O)=O` [Example 43]: the Ki in test [1] was 6.5 nM; in test [2] it was 8.8 nM.

Regarding `CN1C(=N)N[C@](C)(c2sc(-c3cccc(-c4noc(C5CC5)n4)c3)cc2F)CS1(=O)=O` [Example 45], the Ki is 3 nM in test [1] and 323 nM in test [2].

On to `CN1C(=N)N[C@](C)(c2sc(-c3cccc(-c4ncno4)c3)cc2F)CS1(=O)=O` [Example 48], for which the values for the Ki in test [1] and in test [2] were 0.63 nM and 0.87 nM, respectively.

Take `Cc1noc(-c2cc(-c3cc(Cl)c([C@]4(C)CS(=O)(=O)N(C)C(=N)N4)s3)ccn2)n1` [Example 49]: the Ki in test [1] was 1.1 nM; in test [2] it was 18.7 nM.

For `Cc1noc(-c2cc(-c3cc(F)c([C@]4(C)CS(=O)(=O)N(C)C(=N)N4)s3)ccn2)n1` [Example 50], the Ki in test [1] is 2.3 nM; in test [2], 56.3 nM.

Turning to `CN1C(=N)N[C@](C)(c2sc(-c3ccnc(-c4nc(C5CC5)no4)c3)cc2Cl)CS1(=O)=O` [Example 51], the values for the Ki in test [1] and in test [2] were 2.5 nM and 127 nM, respectively.

As to `CN1C(=N)N[C@](C)(c2sc(-c3ccnc(-c4nc(C5CC5)no4)c3)cc2F)CS1(=O)=O` [Example 52], the results for the Ki in test [1] and in test [2] were 17 nM and 498 nM, respectively.

Regarding `Cc1nnc(-c2cccc(-c3cc(Cl)c([C@]4(C)CS(=O)(=O)N(C)C(=N)N4)s3)c2)o1` [Example 53], the Ki in test [2] is 129 nM.

For the compound `CN1C(=N)N[C@](C)(c2sc(-c3ccnc(-c4ccccc4)c3)cc2F)CS1(=O)=O` [Example 54], the Ki in test [1] is 12 nM; in test [2], 132 nM.

Consider `CN1C(=N)N[C@](C)(c2sc(-c3ccnc(-c4cncnc4)c3)cc2F)CS1(=O)=O` [Example 55], for which the Ki is 212 nM in test [1] and 1250 nM in test [2].

For the compound `CN1C(=N)N[C@](C)(c2sc(-c3ccnc(-c4cnco4)c3)cc2F)CS1(=O)=O` [Example 56], the Ki is 20 nM in test [1] and 23.5 nM in test [2].

With `CN1C(=N)N[C@](C)(c2sc(-c3cncc(-c4nnc(C5CC5)o4)c3)cc2Cl)CS1(=O)=O` [Example 57], the Ki in test [1] was 44 nM; in test [2], 566 nM.

On to `Cc1nonc1N1CCN(c2nccc3c(Cl)c([C@]4(C)CS(=O)(=O)N(C)C(=N)N4)sc23)CC1` [Example 120], for which, in test [1], the Ki is 96 nM.
